According to patent US20240358829A1, “Lymphocyte Population and Methods for Producing Same” (AVM Biotechnology, LLC, priority 2021, published 2024):
Where two headings read alike, the source gives them in different places.

Experiments:
[1] = system: AVM-NKT cells (CD3highCD49b+); assay type: in vivo, mouse
Excerpt: Mice were anesthetized with isoflurane gas.

[2] = Compassionate use patients treated with AVM0703; assay type: in vivo, human
[3] = system: CD56+γδTCR+ NKT-like cells
Experimental: For characterisation of the induced/mobilized population of NKT-like cells (AVM-NKT) in humans, whole blood from human subjects was drawn in K2 EDTA Vacutainer tube (367862, BD Biosciences, NJ) and shipped to AVM Biotechnology at room temperature. 100 μl of whole blood was stained with the following antibodies: CD45 AF700 (2D1), CD16 APC (3G8), INKT PECy7 (6B11), CD8 PE (SK1), CD14 FITC (M5E2), CD56 BV650 (5.1H11), γδTCR BV510 (B1), CD19 BV421 (HIB19), NKp44 APC (P44-8) (all from Biolegend, San Diego, CA) and CD3 APCVio770 (BW264/56), (Miltenyi Biotec, San Jose, CA), 7-AAD, (Biolegend, San Diego CA) was included to distinguish the live and dead cells. Antibody staining was performed for 15 minutes at room temperature. Erythrocytes present in the sample were lysed using BD FACS lyse (BD Biosciences, San Diego CA) for 10 minutes at room temperature, then washed and resuspended in 300 μl 1×DPBS CMF. Healthy patient blood from BloodWorks (Seattle, WA), unstained and fluorescence minus one (FMO) were included as controls. 250 μl sample was analyzed on MACSQuant 16 (Serial #40150, Miltenyi Biotec, San Jose, CA) flow cytometer. Data was analyzed using Kaluza 2.1 (Beckman Coulter Lifesciences, Indianapolis, IN) software for different immune population. Data obtained from flow cytometry analyzed by Kaluza were combined to determine different cell populations gated from Live CD45 Lymphocytes: CD3+ T cell, CD8+ cytotoxic T cell, CD3+CD56+ (NKT cells) CD3-CD56+, CD3-CD56bright (NK cells) and CD3-CD19+ (B cells), CD3+γδTCR+ cells, CD3+γδTCR bright cells, CD3+iTCR+ cells, Live WBC CD3-CD16bright granulocytes, Live WBC CD3-CD14+ monocytes. Numbers were reported as % WBC and as cells per μl.

SMILES: C[C@@H]1C[C@H]2[C@@H]3CCC4=CC(=O)C=C[C@]4(C)[C@@]3(F)[C@@H](O)C[C@]2(C)[C@@]1(O)C(=O)COP(=O)(O)O [AVM0703, dexamethasone sodium phosphate]
- location of induced AVM-NKT cells ([1]; naïve male Balb/c mice, 48 hours after doses about 29 mg/kg and higher (given as DP)): Induced in Bone Marrow and Fat Tissue
- location of induced AVM-NKT cells ([1]; naïve male C57Bl/6 mice): in blood
- Presence of AVM-NKT cells, 48 hrs spleen ([1]; naïve mice): positive
- time to immune infiltrate (skin turning red over the tumor area) ([2]; compassionate use patient with CNS squamous cell carcinoma, after starting an 18 mg/kg infusion): ≤ 30 min
- neutrophil production ([2]; compassionate use patient without neutrophils for 6 years): began making healthy active neutrophils
- % of the CD56+ cells positive for both γδTCR and iTCR ([3]; lysed whole blood, FIG. 14): 51%
- CD8 dim/-, % CD56+γδTCR+ ([3]; representative subject): ~98%
- CD14+, % CD56+γδTCR+ ([3]; representative subject): 67%
- CD16+, % CD56+γδTCR+ ([3]; representative subject): 86%
- CD19+, % CD56+γδTCR+ ([3]; representative subject): 85%
- NKp44 positive, % CD56+γδTCR+ ([3]; representative subject): ~97%
- iNKT positive, % CD56+γδTCR+ ([3]; representative subject): ~96%
- CD56+γδTCR+ cells, % of WBC ([3]; whole blood, within 30 minutes post infusion): 1.64%
- CD16 and NKp46 expression, % of the AVM_NKT cells ([3]; γδTCR+iTCR+ quadrant, FIG. 14): ~100%
